The results in this text go back to PubChem BioAssay AID192 (DTP/NCI, 2004).

Where “and” joins values, the source holds several entries; their conditions need not be identical. Identical values can stand only once. Toxic doses and inconclusive results are not listed.

The subject of this experiment is BDF1 mice, B16 melanoma ip, median survival T/C. Briefly: NCI In Vivo Anticancer Drug Screen. Data for tumor model B16 Melanoma (intraperitoneal) in B6D2F1 (BDF1) mice. The note with it: endpoint: median survival time, higher = longer survival. An outline of the steps: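 Transplantable tumor model; survival or tumor size measured; reported as T/C, treated over vehicle control.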

Where [1] appears, read: dose: 100.0 mg/kg/injection, schedule: Q04DX003 (ip), vehicle: saline with Tween-80.
Setting [2] is: dose: 200.0 mg/kg/injection, schedule: Q04DX003 (ip), vehicle: saline with Tween-80.
Setting [3] is: dose: 400.0 mg/kg/injection, schedule: Q04DX003 (ip), vehicle: saline with Tween-80.
[4] abbreviates: dose: 100.0 mg/kg/injection, schedule: Q01DX009 (ip), vehicle: saline with Tween-80.
Setting [5] is: dose: 200.0 mg/kg/injection, schedule: Q01DX009 (ip), vehicle: saline with Tween-80.
[6] abbreviates: dose: 400.0 mg/kg/injection, schedule: Q01DX009 (ip), vehicle: saline with Tween-80.
Setting [7] is: dose: 25.0 mg/kg/injection, schedule: Q04DX003 (ip), vehicle: Klucel (hydroxypropylcellulose) (HPC).
[8] abbreviates: dose: 50.0 mg/kg/injection, schedule: Q04DX003 (ip), vehicle: Klucel (hydroxypropylcellulose) (HPC).
The mark [9] stands for this setting: dose: 100.0 mg/kg/injection, schedule: Q01DX009 (ip), vehicle: Klucel (hydroxypropylcellulose) (HPC).
The mark [10] stands for this setting: dose: 200.0 mg/kg/injection, schedule: Q01DX009 (ip), vehicle: Klucel (hydroxypropylcellulose) (HPC).
Where [11] appears, read: dose: 25.0 mg/kg/injection, schedule: Q01DX009 (ip), vehicle: Klucel (hydroxypropylcellulose) (HPC).
The mark [12] stands for this setting: dose: 50.0 mg/kg/injection, schedule: Q01DX009 (ip), vehicle: Klucel (hydroxypropylcellulose) (HPC).
Setting [13] is: dose: 6.25 mg/kg/injection, schedule: Q01DX009 (ip), vehicle: saline with Tween-80.
[14] abbreviates: dose: 12.5 mg/kg/injection, schedule: Q01DX009 (ip), vehicle: saline with Tween-80.
[15] abbreviates: dose: 25.0 mg/kg/injection, schedule: Q01DX009 (ip), vehicle: saline with Tween-80.
Where [16] appears, read: dose: 50.0 mg/kg/injection, schedule: Q01DX009 (ip), vehicle: saline with Tween-80.
The mark [17] stands for this setting: dose: 400.0 mg/kg/injection, schedule: Q01DX009 (ip), vehicle: Klucel (hydroxypropylcellulose) (HPC).
[18] abbreviates: dose: 12.5 mg/kg/injection, schedule: Q01DX009 (ip), vehicle: Klucel (hydroxypropylcellulose) (HPC).
The mark [19] stands for this setting: dose: 25.0 mg/kg/injection, schedule: Q01DX009 (ip), vehicle: saline.
Setting [20] is: dose: 50.0 mg/kg/injection, schedule: Q01DX009 (ip), vehicle: saline.
Where [21] appears, read: dose: 100.0 mg/kg/injection, schedule: Q01DX009 (ip), vehicle: saline.

`Cc1nc(C(N)=O)c(=O)[nH]c1C`: the T/C by setting is: (dose: 12.5 mg/kg/injection, schedule: Q04DX003 (ip), vehicle: saline) 97 % of control; (dose: 25.0 mg/kg/injection, schedule: Q04DX003 (ip), vehicle: saline) 102 % of control; (dose: 50.0 mg/kg/injection, schedule: Q04DX003 (ip), vehicle: saline with Tween-80) 97 % of control; (dose: 50.0 mg/kg/injection, schedule: Q04DX003 (ip), vehicle: saline) 100 % of control; under setting [1], 102 % of control; under setting [2], 100 % of control. Also, the T/C under setting [3] is 104 % of control.
On to `CC1=C(c2cc3ccccc3c3ccccc23)CCCC1`, for which the T/C is 90 % of control under setting [4], 88 % of control under setting [5] and 91 % of control under setting [6].
As to `CC(Br)C1(c2cccc([N+](=O)[O-])c2)OCCO1` (stereo not given), the T/C was 94 % of control under setting [7] and 92 % of control under setting [8].
As for `Cc1c(Cl)cccc1NC(=O)c1ccccc1C(=O)O`, the T/C by setting is: under setting [9], 100 % of control; under setting [10], 102 % of control.
In the case of `CS(=O)(=O)OCCCCCCCCCOS(C)(=O)=O`, the T/C by setting is: under setting [11], 94 % of control; under setting [12], 88 % of control; under setting [9], 102 % of control.
With `CCCCCNC(=O)Nc1cccc(Cl)c1C`, the T/C runs as follows: under setting [13], 91 % of control; under setting [14], 104 % of control; under setting [15], 100 % of control; under setting [16], 89 % of control and 103 % of control.
Consider `O=C(O)/C(=C\c1ccc(Cl)cc1)c1ccc(Cl)cc1`, for which the T/C reads like this: (dose: 37.5 mg/kg/injection, schedule: Q01DX009 (ip), vehicle: Klucel (hydroxypropylcellulose) (HPC)) 87 % of control; (dose: 75.0 mg/kg/injection, schedule: Q01DX009 (ip), vehicle: Klucel (hydroxypropylcellulose) (HPC)) 92 % of control; (dose: 150.0 mg/kg/injection, schedule: Q01DX009 (ip), vehicle: Klucel (hydroxypropylcellulose) (HPC)) 93 % of control.
On to `CC1CCN(c2ccc([N+](=O)[O-])cc2)CC1`, for which the T/C runs as follows: under setting [9], 106 % of control; under setting [10], 87 % of control; under setting [17], 96 % of control.
Take `c1ccc(-c2nn(-c3ccccc3)[n+](-c3cccc4ccccc34)n2)cc1`: the T/C by setting is: (dose: 2.0 mg/kg/injection, schedule: Q01DX009 (ip), vehicle: saline with Tween-80) 97 % of control; (dose: 4.0 mg/kg/injection, schedule: Q01DX009 (ip), vehicle: saline with Tween-80) 93 % of control.
For `Nc1ccc(-c2ccc(N)c([N+](=O)[O-])c2)cc1[N+](=O)[O-]`, the T/C under setting [4] was 100 % of control, the T/C under setting [5] was 97 % of control and the T/C under setting [6] was 105 % of control.
As to `CSc1ccc(NC(=O)Nc2ccccc2)cc1`, the T/C reads like this: under setting [9], 102 % of control; under setting [10], 98 % of control; under setting [17], 95 % of control.
Take `O=S(=O)(OCC(COS(=O)(=O)c1ccccc1)(COS(=O)(=O)c1ccccc1)COS(=O)(=O)c1ccccc1)c1ccccc1`: the T/C under setting [16] was 110 % of control, the T/C under setting [4] is 97 % of control and the T/C under setting [5] is 110 % of control.
In the case of `CCOC(=O)c1c(C)[nH]c2c(-c3ccccc3)c3cc(Cl)ccc3nc12`, the T/C under setting [12] is 100 % of control, the T/C under setting [9] is 104 % of control, the T/C under setting [10] is 94 % of control and the T/C under setting [17] is 94 % of control.
`Cc1c(N)nc([C@H](CC(N)=O)NC[C@H](N)C(N)=O)nc1C(=O)N[C@H](C(=O)N[C@H](C)[C@@H](O)CC(=O)N[C@H](C(=O)NC(O[C@@H]1O[C@@H](C)[C@@H](N)[C@@H](O)[C@H]1O)C(O)c1nc(-c2nc(C(=O)NCCCCN)cs2)cs1)[C@@H](C)O)[C@@H](O[C@@H]1O[C@@H](CO)[C@@H](O)[C@H](O)[C@@H]1O[C@H]1O[C@H](CO)[C@@H](O)[C@H](OC(N)=O)[C@@H]1O)c1c[nH]cn1` (stereo not given in full): the T/C (dose: 0.8 mg/kg/injection, schedule: Q01DX009 (ip), vehicle: saline) is 152 % of control; the T/C (dose: 1.6 mg/kg/injection, schedule: Q01DX009 (ip), vehicle: saline) is 152 % of control; the T/C (dose: 3.2 mg/kg/injection, schedule: Q01DX009 (ip), vehicle: saline) was 150 % of control.
`C[C@]12CC[C@@H]3c4ccc(OC(=O)Cc5ccc(N(CCCl)CCCl)cc5)cc4CC[C@H]3[C@@H]1CC[C@@H]2OC(=O)Cc1ccc(N(CCCl)CCCl)cc1`: the T/C is, setting by setting: under setting [18], 95 % of control; under setting [11], 108 % of control; under setting [12], 104 % of control; (dose: 64.0 mg/kg/injection, schedule: Q02DX009 (ip), vehicle: Klucel (hydroxypropylcellulose) (HPC)) 95 % of control; under setting [9], 111 % of control; under setting [10], 118 % of control. In addition, the T/C is 90 % of control (dose: 256.0 mg/kg/injection, schedule: Q02DX009 (ip), vehicle: Klucel (hydroxypropylcellulose) (HPC)) and 123 % of control under setting [17].
As for `COc1ccc(N=O)c(O)c1`, the T/C under setting [13] is 97 % of control; the T/C under setting [14] was 97 % of control; the T/C under setting [15] is 90 % of control; the T/C under setting [19] was 197 % of control; the T/C under setting [16] was 109 % of control; the T/C under setting [20] is 95 % of control. Also, the T/C under setting [21] was 90 % of control.
Consider `COC1C(CO)OC(n2cnc3c(=S)nc(N)[nH]c32)C1O` (stereo not given), for which the T/C by setting is: under setting [18], 112 % of control; under setting [11], 103 % of control; under setting [12], 108 % of control.
Take `Nc1cc(Cl)cc(Cl)c1C(=O)O`: the T/C is 102 % of control (dose: 50.0 mg/kg/injection, schedule: Q04DX003 (ip), vehicle: other); 100 % of control (dose: 100.0 mg/kg/injection, schedule: Q04DX003 (ip), vehicle: other); 102 % of control (dose: 200.0 mg/kg/injection, schedule: Q04DX003 (ip), vehicle: other).
Regarding `O=C1C(F)=C(N2CC2)C(=O)C(N2CCOCC2)=C1N1CC1`, the T/C was 118 % of control (dose: 0.75 mg/kg/injection, schedule: Q01DX009 (ip), vehicle: saline); 108 % of control (dose: 1.5 mg/kg/injection, schedule: Q01DX009 (ip), vehicle: saline); 100 % of control (dose: 3.0 mg/kg/injection, schedule: Q01DX009 (ip), vehicle: saline).
In the case of `O=[N+]([O-])c1ccc(/C=C2/c3cc(Cl)ccc3-c3c(Cl)cc(Cl)cc32)o1`, the T/C is, setting by setting: under setting [20], 93 % of control; under setting [21], 100 % of control; (dose: 200.0 mg/kg/injection, schedule: Q01DX009 (ip), vehicle: saline) 90 % of control; (dose: 400.0 mg/kg/injection, schedule: Q01DX009 (ip), vehicle: saline) 88 % of control.
`O=C(O)C1=CCC=CC1`: the T/C reads like this: under setting [1], 100 % of control; under setting [2], 103 % of control; under setting [3], 96 % of control.
For the molecule `NC(=O)C=C1c2ccccc2-c2ccccc21`, the T/C is, setting by setting: under setting [11], 100 % of control; under setting [12], 100 % of control; under setting [9], 94 % of control; under setting [10], 88 % of control; under setting [17], 86 % of control.
Take `COc1cc2c(cc1OC)C(C=C(c1ccccc1)c1ccccc1)N(C)CC2` (stereo not given): the T/C by setting is: (dose: 12.5 mg/kg/injection, schedule: Q04DX003 (ip), vehicle: Klucel (hydroxypropylcellulose) (HPC)) 97 % of control; under setting [7], 97 % of control; under setting [8], 100 % of control.
For `CCCn1c(=S)[nH]c2ccccc2c1=O`, the T/C under setting [11] is 120 % of control; the T/C under setting [15] is 100 % of control; the T/C under setting [12] is 100 % of control; the T/C under setting [16] is 92 % of control; the T/C (dose: 66.0 mg/kg/injection, schedule: Q01DX009 (ip), vehicle: saline with Tween-80) was 100 % of control; the T/C under setting [9] was 86 % of control and 102 % of control. In addition, the T/C is 87 % of control and 94 % of control under setting [4]; 86 % of control (dose: 150.0 mg/kg/injection, schedule: Q01DX009 (ip), vehicle: saline with Tween-80).
Regarding `CN(C)CCCN1c2ccccc2Sc2cnccc21`, the T/C by setting is: under setting [19], 115 % of control; under setting [20], 93 % of control; under setting [21], 115 % of control.
